{"source": "patent US20240124398A1", "about": "(priority 2021, published 2024)", "key": {"[1]": {"assay": "Static storage for 7 days at 40° C./75% RH (XRPD and HPLC)", "settings": "for Static Storage 40° C./75% RH: HPLC: HPLC purity after 7 days at 40° C. and 75% relative humidity; for Static Storage 40° C./75% RH: XRPD: XRPD pattern after 7 days at 40° C. and 75% relative humidity"}, "[2]": {"assay": "Solubility of psilocin salts in saline", "settings": "for XRPD of Residue: solid residue after 5 hours in saline; for Solubility (in words): comparison among forms or with freeform"}, "GVS (hygroscopicity)": {"assay": "GVS (hygroscopicity)", "type": "physicochemical"}, "[3]": {"assay": "Intrinsic dissolution rate (IDR)", "type": "physicochemical", "settings": "for IDR (in words): ranking among TAR Pattern 1, SUC Pattern 3, BEN Pattern 1"}, "[4]": {"settings": "Table 9, saturated solution in saline, 25° C., 5 hours"}}, "note": "“And” between values parts separate entries of the source, which are not always exact repeats. Equal entries are not always repeated. “Also recorded” adds a separate entry of the source. Structures can show the parent of a compound that is named as a salt.", "data": [{"compound": "CN(C)CCc1c[nH]c2cccc(O)c12.O=C(O)c1ccccc1O", "note": "[Psilocin salicylate SAL Pattern 2, Psilocin salicylate]", "values": [{"measurement": "Static Storage 40° C./75% RH: HPLC", "setting": "[1]", "value": "HPLC- 99.8%"}, {"measurement": "Static Storage 40° C./75% RH: XRPD", "setting": "[1]", "value": "SAL Pattern 2 +"}]}, {"compound": "CN(C)CCc1c[nH]c2cccc(O)c12.O=S(=O)(O)c1cccc2c(S(=O)(=O)O)cccc12", "note": "[Psilocin 1,5-napthalenedisulfonate NAP Pattern 2]", "values": [{"measurement": "Static Storage 40° C./75% RH: HPLC", "setting": "[1]", "value": "HPLC - 99.2%"}, {"measurement": "Static Storage 40° C./75% RH: XRPD", "setting": "[1]", "value": "NAP Pattern 1"}]}, {"compound": "Psilocin acetate [Psilocin acetate ACE Pattern 2]", "values": [{"measurement": "Static Storage 40° C./75% RH: HPLC", "setting": "[1]", "value": "HPLC- 83.4%"}, {"measurement": "Static Storage 40° C./75% RH: XRPD", "setting": "[1]", "value": "ACE Pattern 3"}]}, {"compound": "Psilocin adipate [Psilocin adipate ADI Pattern 1]", "values": [{"measurement": "Static Storage 40° C./75% RH: HPLC", "setting": "[1]", "value": "HPLC- 98.4%"}, {"measurement": "Static Storage 40° C./75% RH: XRPD", "setting": "[1]", "value": "ADI Pattern 1 +"}]}, {"compound": "Psilocin adipate [Psilocin adipate ADI Pattern 2]", "values": [{"measurement": "Static Storage 40° C./75% RH: HPLC", "setting": "[1]", "value": "HPLC- 98.1%"}, {"measurement": "Static Storage 40° C./75% RH: XRPD", "setting": "[1]", "value": "ADI Pattern 3"}]}, {"compound": "Psilocin fumarate [Psilocin fumarate FUM Pattern 1]", "values": [{"measurement": "Static Storage 40° C./75% RH: XRPD", "setting": "[1]", "value": "FUM Pattern 3; also recorded: FUM Pattern 4"}]}, {"compound": "Psilocin acetate [Psilocin acetate ACE Pattern 1]", "values": [{"measurement": "Static Storage 40° C./75% RH: HPLC", "setting": "[1]", "value": "HPLC - 75.2%"}, {"measurement": "Static Storage 40° C./75% RH: XRPD", "setting": "[1]", "value": "ACE Pattern 1 +"}]}, {"compound": "Psilocin succinate", "values": [{"measurement": "Static Storage 40° C./75% RH: XRPD", "setting": "[1]", "value": "SUC Pattern 5"}]}, {"compound": "Psilocin tartrate [TAR Pattern 1]", "values": [{"measurement": "pH at 5 hrs", "setting": "[2]; [4]", "value": 3.4}, {"measurement": "pH at 5 hrs", "setting": "[2]; Table 10 (updated), saline", "value": 3.5}, {"measurement": "GVS hygroscopicity (in words)", "setting": "GVS (hygroscopicity)", "value": "Slightly Hygroscopic"}, {"measurement": "GVS reversible mass change between 0-90% RH", "setting": "GVS (hygroscopicity)", "value": "Reversible 1.4%"}, {"measurement": "IDR", "setting": "[3]", "value": 6.9, "unit": "mg/min/cm2"}, {"measurement": "IDR (in words)", "setting": "[3]", "value": "second highest IDR"}]}, {"compound": "CN(C)CCc1c[nH]c2cccc(O)c12", "note": "[Psilocin free base, Psilocin, reference compound]", "values": [{"measurement": "pH at 5 hrs", "setting": "[2]; [4]", "value": "9.8 and 9.9"}, {"measurement": "XRPD of Residue", "setting": "[2]; Table 9", "value": "Freeform Pattern 1"}, {"measurement": "pH at 5 hrs", "setting": "[2]; Table 10 (updated), saline", "value": "9.8 and 9.9"}, {"measurement": "IDR", "setting": "[3]", "value": "[Freeform = 0.09] mg/min/cm2"}]}, {"compound": "CN(C)CCc1c[nH]c2cccc(O)c12", "note": "[Psilocin hydrochloride HCl Pattern 1, Psilocin hydrochloride]", "values": [{"measurement": "pH at 5 hrs", "setting": "[2]; Table 9, saturated solution in saline, 25° C., 5 hours, hydrochloride", "value": "6.0 and 6.1"}, {"measurement": "pH at 5 hrs", "setting": "[2]; Table 10 (updated), saline, hydrochloride", "value": "4.0 and 5.4"}]}, {"compound": "Psilocin oxalate [Psilocin oxalate OX Pattern 1]", "values": [{"measurement": "Static Storage 40° C./75% RH: HPLC", "setting": "[1]", "value": "HPLC- 94.4%"}, {"measurement": "Static Storage 40° C./75% RH: XRPD", "setting": "[1]", "value": "OX Pattern 3"}]}, {"compound": "Psilocin tartrate", "values": [{"measurement": "Static Storage 40° C./75% RH: XRPD", "setting": "[1]", "value": "TAR Pattern 4"}]}, {"compound": "Psilocin succinate [SUC Pattern 3]", "values": [{"measurement": "GVS hygroscopicity (in words)", "setting": "GVS (hygroscopicity)", "value": "hygroscopic"}, {"measurement": "GVS mass change between 0 and 80% RH", "setting": "GVS (hygroscopicity); 0-80% RH", "value": "Only 1.0% mass"}, {"measurement": "IDR", "setting": "[3]", "value": 12.4, "unit": "mg/min/cm2"}, {"measurement": "IDR (in words)", "setting": "[3]", "value": "highest IDR"}]}, {"compound": "CN(C)CCc1c[nH]c2cccc(O)c12.O=C(O)c1ccccc1O", "note": "[Psilocin salicylate SAL Pattern 1, Psilocin salicylate]", "values": [{"measurement": "pH at 5 hrs", "setting": "[2]; [4]", "value": 4.2}, {"measurement": "XRPD of Residue", "setting": "[2]; Table 9", "value": "SAL Pattern 1"}, {"measurement": "pH at 5 hrs", "setting": "[2]; Table 10 (updated), saline", "value": 4.2}, {"measurement": "Solubility (in words)", "setting": "[2]; saline", "value": "substantial increases in solubility compared with the freeform"}, {"measurement": "Static Storage 40° C./75% RH: HPLC", "setting": "[1]", "value": "HPLC- 99.1%"}, {"measurement": "Static Storage 40° C./75% RH: XRPD", "setting": "[1]", "value": "SAL Pattern"}]}, {"compound": "Psilocin phosphate [Psilocin phosphate PHO Pattern 1]", "values": [{"measurement": "Static Storage 40° C./75% RH: HPLC", "setting": "[1]", "value": "HPLC - 93.9%"}, {"measurement": "Static Storage 40° C./75% RH: XRPD", "setting": "[1]", "value": "PHO Pattern 2"}]}, {"compound": "Psilocin oxalate [Psilocin oxalate OX Pattern 2]", "values": [{"measurement": "Static Storage 40° C./75% RH: HPLC", "setting": "[1]", "value": "HPLC- 97.1%"}, {"measurement": "Static Storage 40° C./75% RH: XRPD", "setting": "[1]", "value": "OX Pattern 3 +"}]}, {"compound": "CCC(=O)O.CN(C)CCc1c[nH]c2cccc(O)c12", "note": "[Psilocin propionate PRO Pattern 1, Psilocin propionate]", "values": [{"measurement": "Static Storage 40° C./75% RH: HPLC", "setting": "[1]", "value": "HPLC- 99.4%"}, {"measurement": "Static Storage 40° C./75% RH: XRPD", "setting": "[1]", "value": "PRO Pattern"}]}, {"compound": "CN(C)CCc1c[nH]c2cccc(O)c12.O=S(=O)(O)c1cccc2c(S(=O)(=O)O)cccc12", "note": "[Psilocin 1,5-napthalenedisulfonate NAP Pattern 1]", "values": [{"measurement": "pH at 5 hrs", "setting": "[2]; [4]", "value": 2.0}, {"measurement": "XRPD of Residue", "setting": "[2]; Table 9", "value": "NAP Pattern 1"}, {"measurement": "pH at 5 hrs", "setting": "[2]; Table 10 (updated), saline", "value": 2.0}, {"measurement": "Solubility (in words)", "setting": "[2]; saline", "value": "substantial increases in solubility compared with the freeform"}, {"measurement": "Static Storage 40° C./75% RH: HPLC", "setting": "[1]", "value": "HPLC- 97.2%"}, {"measurement": "Static Storage 40° C./75% RH: XRPD", "setting": "[1]", "value": "NAP Pattern 1"}]}, {"compound": "Psilocin pamoate [Psilocin pamoate PAM Pattern 1]", "values": [{"measurement": "Static Storage 40° C./75% RH: HPLC", "setting": "[1]", "value": "HPLC- 99.6%"}, {"measurement": "Static Storage 40° C./75% RH: XRPD", "setting": "[1]", "value": "PAM Pattern 1"}]}, {"compound": "CN(C)CCc1c[nH]c2cccc(O)c12.O=C(O)c1ccccc1", "note": "[BEN Pattern 1, Psilocin benzoate]", "values": [{"measurement": "pH at 5 hrs", "setting": "[2]; Table 9, saturated solution in saline, 25° C., 5 hours, listed as Psilocin benzoate BEN Pattern 1", "value": "6.8 and 6.9"}, {"measurement": "XRPD of Residue", "setting": "[2]; Table 9", "value": "BEN Pattern 1"}, {"measurement": "pH at 5 hrs", "setting": "[2]; Table 10 (updated), saline, listed as Psilocin benzoate BEN Pattern 1", "value": "6.8 and 6.9"}, {"measurement": "Solubility (in words)", "setting": "[2]; saline", "value": "substantial increases in solubility compared with the freeform; also recorded: lowest solubility"}, {"measurement": "Solubility in Saline", "setting": "[2]; summary Table 4, saline, 25° C., 5 hours", "value": 5000, "unit": "µg/mL"}, {"measurement": "GVS hygroscopicity (in words)", "setting": "GVS (hygroscopicity)", "value": "Non-hygroscopic"}, {"measurement": "GVS reversible mass change between 0-90% RH", "setting": "GVS (hygroscopicity)", "value": "Reversible 0.25%"}, {"measurement": "IDR", "setting": "[3]", "value": 0.4, "unit": "mg/min/cm2"}, {"measurement": "IDR (in words)", "setting": "[3]", "value": "lowest"}, {"measurement": "Static Storage 40° C./75% RH: HPLC", "setting": "[1]", "value": "HPLC- 99.0%"}, {"measurement": "Static Storage 40° C./75% RH: XRPD", "setting": "[1]", "value": "BEN Pattern 1"}]}]}
